Source: ChEMBL document CHEMBL1135032, “Binding of aminoglycoside antibiotics with modified A-site 16S rRNA construct containing non-nucleotide linkers” (Bioorg Med Chem Lett, 2002)

Tests used:
Type in all cases: nucleic-acid assay
Nucleic Acid [1] = assay: Tested for binding affinity against RNA construct C; n.b. means no observable binding
Nucleic Acid [2] = assay: Tested for binding affinity against RNA construct B; n.b. means no observable binding
Nucleic Acid [3] = assay: Tested for binding affinity against RNA construct E; n.b. means no observable binding
Nucleic Acid [4] = assay: Tested for binding affinity against RNA construct A; n.b. means no observable binding
Nucleic Acid [5] = assay: Tested for binding affinity against RNA construct D; n.b. means no observable binding
Nucleic Acid [6] = assay: Tested for binding affinity against RNA construct E
Nucleic Acid [7] = assay: Tested for binding affinity against RNA construct B
Nucleic Acid [8] = assay: Tested for binding affinity against RNA construct A
Nucleic Acid [9] = assay: Tested for binding affinity against RNA construct D
Nucleic Acid [10] = assay: Tested for binding affinity against RNA construct C

Structure (SMILES) | Kd (Nucleic Acid [1]) | Kd (Nucleic Acid [2]) | Kd (Nucleic Acid [3]) | Kd (Nucleic Acid [4]) | Kd (Nucleic Acid [5]) | Kd (Nucleic Acid [6]) [nM] | Kd (Nucleic Acid [7]) [nM] | Kd (Nucleic Acid [8]) [nM] | Kd (Nucleic Acid [9]) [nM] | Kd (Nucleic Acid [10]) [nM]
NC[C@H]1O[C@H](O[C@H]2[C@H](O)[C@@H](O[C@H]3O[C@H](CO)[C@@H](O)[C@H](N)[C@H]3O)[C@H](N)C[C@@H]2N)[C@H](N)[C@@H](O)[C@@H]1O [BEKANAMYCIN] | No binding | – | – | – | – | 910 | 2900 | 2950 | 2750 | –
NC[C@@H]1O[C@H](O[C@H]2[C@@H](O)[C@H](O[C@@H]3[C@@H](O)[C@H](N)C[C@H](N)[C@H]3O[C@H]3O[C@H](CO)[C@@H](O)[C@H](O)[C@H]3N)O[C@@H]2CO)[C@H](N)[C@@H](O)[C@@H]1O [PAROMOMYCIN] | – | – | – | – | – | 400 | 1580 | 1640 | 1700 | 5330
NC[C@@H]1O[C@H](O[C@H]2[C@@H](O)[C@H](O[C@@H]3[C@@H](O)[C@H](N)C[C@H](N)[C@H]3O[C@H]3O[C@H](CN)[C@@H](O)[C@H](O)[C@H]3N)O[C@@H]2CO)[C@H](N)[C@@H](O)[C@@H]1O [FRAMYCETIN] | – | – | – | – | – | 91 | – | 410 | 470 | 4340

Further lines, with some results ahead:

Kd (Nucleic Acid [1]) | Kd (Nucleic Acid [2]) | Kd (Nucleic Acid [3]) | Kd (Nucleic Acid [4]) | Kd (Nucleic Acid [5]) | Kd (Nucleic Acid [6]) [nM] | Kd (Nucleic Acid [7]) [nM] | Kd (Nucleic Acid [8]) [nM] | Kd (Nucleic Acid [9]) [nM] | Structure (SMILES) | Kd (Nucleic Acid [10]) [nM]
No binding | No binding | No binding | No binding | No binding | – | – | – | – | CN[C@@H]1[C@H](O[C@H]2[C@H](O[C@H]3[C@H](O)[C@@H](O)[C@H](N=C(N)N)[C@@H](O)[C@@H]3N=C(N)N)O[C@@H](C)[C@]2(O)C=O)O[C@@H](CO)[C@H](O)[C@H]1O [STREPTOMYCIN] | –
No binding | – | – | – | – | 680 | 2040 | 2070 | – | NC[C@H]1O[C@H](O[C@H]2[C@H](O)[C@@H](O[C@H]3O[C@H](CO)[C@@H](O)[C@H](N)[C@H]3O)[C@H](N)C[C@@H]2N)[C@H](N)C[C@@H]1O [TOBRAMYCIN] | –
